One assay deals with HepG2. As to the kind of experiment: Cytotoxicity against human HepG2 cells assessed as ATP level after 72 hrs by CellTiter-Glo assay. Type of assay: cell-based. As to conditions: HepG2, 72 h.
The target in assay [1] is T1, Thyroid hormone receptor alpha (Homo sapiens, UniProt P10827).
T1 sequence (P10827 whole entry): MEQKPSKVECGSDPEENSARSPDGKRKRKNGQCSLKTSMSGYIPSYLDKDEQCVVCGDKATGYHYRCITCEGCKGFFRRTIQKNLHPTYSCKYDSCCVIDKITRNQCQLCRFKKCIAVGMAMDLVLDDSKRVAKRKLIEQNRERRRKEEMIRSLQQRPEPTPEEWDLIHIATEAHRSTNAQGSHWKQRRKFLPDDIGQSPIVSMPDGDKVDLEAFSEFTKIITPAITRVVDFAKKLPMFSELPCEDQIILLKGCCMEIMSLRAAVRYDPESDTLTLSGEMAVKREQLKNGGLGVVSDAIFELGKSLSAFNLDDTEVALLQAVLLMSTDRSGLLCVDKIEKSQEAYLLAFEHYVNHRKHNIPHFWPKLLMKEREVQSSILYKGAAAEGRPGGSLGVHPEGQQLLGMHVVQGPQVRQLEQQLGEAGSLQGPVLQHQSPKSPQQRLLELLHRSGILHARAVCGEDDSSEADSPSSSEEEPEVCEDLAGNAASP
The experiment in a line: Inhibition of TRalpha-LBD (unknown origin) interaction to texas red-labeled SRC2-2 peptide by fluorescence polarization assay.

The target of assay [2] is T2, Thyroid hormone receptor beta (Homo sapiens, UniProt P10828).
T2 sequence (P10828 whole entry): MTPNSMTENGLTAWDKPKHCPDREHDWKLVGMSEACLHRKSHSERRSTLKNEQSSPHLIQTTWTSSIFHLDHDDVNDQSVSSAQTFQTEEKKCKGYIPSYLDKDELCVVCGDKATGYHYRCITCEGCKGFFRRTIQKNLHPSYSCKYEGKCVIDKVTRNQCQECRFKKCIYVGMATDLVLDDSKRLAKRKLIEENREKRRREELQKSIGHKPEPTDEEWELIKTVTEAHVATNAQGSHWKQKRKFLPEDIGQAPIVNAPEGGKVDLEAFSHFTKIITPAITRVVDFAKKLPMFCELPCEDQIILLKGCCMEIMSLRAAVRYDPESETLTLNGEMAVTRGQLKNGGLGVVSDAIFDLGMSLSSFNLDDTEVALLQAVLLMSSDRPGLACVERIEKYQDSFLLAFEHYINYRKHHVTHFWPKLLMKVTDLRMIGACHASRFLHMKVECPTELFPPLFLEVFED
As to the kind of experiment: Inhibition of TRbeta-LBD (unknown origin) interaction to texas red-labeled SRC2-2 peptide by fluorescence polarization assay.

For another assay, the target named is T3, Vitamin D3 receptor (Homo sapiens, UniProt P11473).
T3 sequence (P11473 whole entry): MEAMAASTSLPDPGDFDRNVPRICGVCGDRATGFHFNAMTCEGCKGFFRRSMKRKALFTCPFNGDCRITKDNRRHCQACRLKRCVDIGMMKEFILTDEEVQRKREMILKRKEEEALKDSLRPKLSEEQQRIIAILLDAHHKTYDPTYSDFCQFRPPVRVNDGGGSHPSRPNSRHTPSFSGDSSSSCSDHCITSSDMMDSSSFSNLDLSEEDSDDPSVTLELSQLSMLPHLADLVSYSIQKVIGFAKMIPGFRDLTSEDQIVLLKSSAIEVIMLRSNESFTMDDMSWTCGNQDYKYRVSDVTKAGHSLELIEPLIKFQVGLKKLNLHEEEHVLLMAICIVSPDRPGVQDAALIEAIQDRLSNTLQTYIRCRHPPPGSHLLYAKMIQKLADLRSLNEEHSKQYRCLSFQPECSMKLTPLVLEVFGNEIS
The experiment in a line: Inhibition of VDR (unknown origin) interaction to SRC2-3 peptide by fluorescence polarization assay.

Turning to `CN(CC(=O)N1CCc2ccccc21)C(=O)c1ccc(S(C)(=O)=O)c([N+](=O)[O-])c1`, the concentration for a half-maximal effect (EC50) in the assay with HepG2 was > 27 µM. The IC50 (in assay [1]; in assay [2]; at Vitamin D3 receptor) was > 60 µM throughout.

As to `Cc1ccc(N2CCN(C(=O)CCCNC(=O)c3ccc(S(C)(=O)=O)c([N+](=O)[O-])c3)CC2)cc1`, the EC50 in the assay on HepG2 is > 27 µM. In addition, the half-maximal inhibitory concentration (IC50) (in assay [1]; in assay [2]; at Vitamin D3 receptor) was > 60 µM throughout.

On to `CS(=O)(=O)c1ccc(C(=O)N2CCC(C(=O)N(Cc3ccccc3)c3ccccc3)CC2)cc1[N+](=O)[O-]`, for which the EC50 with HepG2 was > 27 µM. For the same molecule, the 50% inhibitory concentration (IC50) (in assay [1]; in assay [2]; at Vitamin D3 receptor) was > 60 µM in each case.

For the molecule `CS(=O)(=O)c1ccc(C(=O)NCCCC(=O)N2CCCCC2)cc1[N+](=O)[O-]`, the half-maximal effective concentration (EC50) in the assay on HepG2 is > 27 µM. Further, the IC50 (in assay [1]; in assay [2]; against Vitamin D3 receptor) was > 60 µM in each case.

As to `CN(CC(=O)N1CCCCC1)C(=O)c1ccc(S(C)(=O)=O)c([N+](=O)[O-])c1`, in the assay with HepG2, the EC50 worked out at 11.3 µM. Moreover, the concentration for half-maximal inhibition (IC50) (in assay [1]; in assay [2]; against Vitamin D3 receptor) was > 60 µM each time.

In the case of `CS(=O)(=O)c1ccc(C(=O)NCCC(=O)N2CCc3ccccc3C2)cc1[N+](=O)[O-]`, the 50% effective concentration (EC50) in the assay with HepG2 is > 27 µM. The IC50 (in assay [1]; in assay [2]; at Vitamin D3 receptor) was > 60 µM throughout.

As for `CS(=O)(=O)c1ccc(C(=O)NCC(=O)N2CCN(c3ccccc3)CC2)cc1[N+](=O)[O-]`, the half-maximal effective concentration (EC50) in the assay with HepG2 was > 27 µM. The concentration for half-maximal inhibition (IC50) (in assay [1]; in assay [2]; against Vitamin D3 receptor) was > 60 µM throughout.

On to `Cc1ccc(N2CCN(C(=O)C3CCN(C(=O)c4ccc(S(C)(=O)=O)c([N+](=O)[O-])c4)CC3)CC2)cc1`, for which the EC50 in the assay with HepG2 was > 27 µM. Besides, the concentration for half-maximal inhibition (IC50) (in assay [1]; in assay [2]; at Vitamin D3 receptor) was > 60 µM each time.

On to `CN(CC(=O)NC12CC3CC(CC(C3)C1)C2)C(=O)c1ccc(S(C)(=O)=O)c([N+](=O)[O-])c1`, for which the half-maximal effective concentration (EC50) with HepG2 is > 27 µM. Moreover, the half-inhibitory concentration (IC50) (in assay [1]; in assay [2]; at Vitamin D3 receptor) was > 60 µM in each case.

With `CCCN(C(=O)CCCNC(=O)c1ccc(S(C)(=O)=O)c([N+](=O)[O-])c1)c1ccccc1`, the 50% effective concentration (EC50) in the assay on HepG2 is > 27 µM. Besides, the IC50 (in assay [1]; in assay [2]; on Vitamin D3 receptor) was > 60 µM throughout.

In the case of `CS(=O)(=O)c1ccc(C(=O)N2CCC(C(=O)N3CCN(c4ccccc4F)CC3)CC2)cc1[N+](=O)[O-]`, the EC50 in the assay on HepG2 is > 27 µM. The IC50 (in assay [1]; in assay [2]; against Vitamin D3 receptor) was > 60 µM throughout.

`CC1CCN(C(=O)CNC(=O)c2ccc(S(C)(=O)=O)c([N+](=O)[O-])c2)CC1`: in the assay with HepG2, the EC50 was > 27 µM. Also, the IC50 was 33 µM in assay [1], 38 µM in assay [2] and > 60 µM against Vitamin D3 receptor.

In the case of `CN(Cc1ccccc1F)C(=O)CNC(=O)c1ccc(S(C)(=O)=O)c([N+](=O)[O-])c1`, in the assay with HepG2, the EC50 came to 11.4 µM. In addition, the IC50 in assay [1] was > 60 µM; in assay [2], 24 µM; against Vitamin D3 receptor, > 60 µM.

Turning to `Cc1ccc(N2CCN(C(=O)CCNC(=O)c3ccc(S(C)(=O)=O)c([N+](=O)[O-])c3)CC2)cc1`, the 50% effective concentration (EC50) in the assay with HepG2 was > 27 µM. Moreover, the half-inhibitory concentration (IC50) (in assay [1]; in assay [2]; against Vitamin D3 receptor) was > 60 µM throughout.

Regarding `CC1Cc2ccccc2N1C(=O)C1CCN(C(=O)c2ccc(S(C)(=O)=O)c([N+](=O)[O-])c2)CC1` (centres undefined), the 50% effective concentration (EC50) in the assay with HepG2 is > 27 µM. The IC50 (in assay [1]; in assay [2]; on Vitamin D3 receptor) was > 60 µM each time.

Consider `CN(Cc1cccc(F)c1)C(=O)CCNC(=O)c1ccc(S(C)(=O)=O)c([N+](=O)[O-])c1`, for which, in the assay with HepG2, the EC50 was determined as 11.2 µM. The 50% inhibitory concentration (IC50) in assay [1] was 29 µM; in assay [2], > 60 µM; on Vitamin D3 receptor, > 60 µM.

As for `CS(=O)(=O)c1ccc(C(=O)NCCCC(=O)N2CCN(c3ccccc3)CC2)cc1[N+](=O)[O-]`, the EC50 in the assay on HepG2 was > 27 µM. Further, the IC50 (in assay [1]; in assay [2]; at Vitamin D3 receptor) was > 60 µM throughout.

For the molecule `CN1CCN(C(=O)C2CCN(C(=O)c3ccc(S(C)(=O)=O)c([N+](=O)[O-])c3)CC2)CC1`, in the assay on HepG2, the EC50 is > 27 µM. For the same molecule, the IC50 (in assay [1]; in assay [2]; against Vitamin D3 receptor) was > 60 µM throughout.

Consider `CN(Cc1ccccc1)C(=O)CN(C)C(=O)c1ccc(S(C)(=O)=O)c([N+](=O)[O-])c1`, for which the EC50 with HepG2 was > 27 µM. The IC50 (in assay [1]; in assay [2]; against Vitamin D3 receptor) was > 60 µM each time.

Take `CN(CC(=O)N1CCN(c2ccc(C(F)(F)F)cc2)CC1)C(=O)c1ccc(S(C)(=O)=O)c([N+](=O)[O-])c1`: in the assay with HepG2, the EC50 turned out to be 11.9 µM. Besides, the concentration for half-maximal inhibition (IC50) (in assay [1]; in assay [2]; against Vitamin D3 receptor) was > 60 µM in each case.

With `CC1Cc2ccccc2N1C(=O)CN(C)C(=O)c1ccc(S(C)(=O)=O)c([N+](=O)[O-])c1` (centres undefined), in the assay with HepG2, the EC50 came to 5.5 µM. In addition, the IC50 (in assay [1]; in assay [2]; against Vitamin D3 receptor) was > 60 µM each time.

On to `CS(=O)(=O)c1ccc(C(=O)NCCCC(=O)NC23CC4CC(CC(C4)C2)C3)cc1[N+](=O)[O-]`, for which, in the assay with HepG2, the EC50 is > 27 µM. Moreover, the 50% inhibitory concentration (IC50) is > 60 µM in assay [1], 10.6 µM in assay [2] and > 60 µM on Vitamin D3 receptor.

On to `CN(Cc1ccccc1F)C(=O)CCCNC(=O)c1ccc(S(C)(=O)=O)c([N+](=O)[O-])c1`, for which, in the assay with HepG2, the half-maximal effective concentration (EC50) was > 27 µM. The IC50 (in assay [1]; in assay [2]; on Vitamin D3 receptor) was > 60 µM throughout.

Take `CS(=O)(=O)c1ccc(C(=O)NCCCC(=O)N(Cc2ccccc2)Cc2ccccc2)cc1[N+](=O)[O-]`: in the assay with HepG2, the concentration for a half-maximal effect (EC50) was > 27 µM. Further, the half-inhibitory concentration (IC50) in assay [1] is 29 µM; in assay [2] it was 59 µM; at Vitamin D3 receptor, > 60 µM.

As for `CN(CC(=O)N1CCN(c2ccccc2)CC1)C(=O)c1ccc(S(C)(=O)=O)c([N+](=O)[O-])c1`, in the assay on HepG2, the EC50 is > 27 µM. For the same molecule, the 50% inhibitory concentration (IC50) (in assay [1]; in assay [2]; at Vitamin D3 receptor) was > 60 µM throughout.

With `CN(Cc1cccc(F)c1)C(=O)CCCNC(=O)c1ccc(S(C)(=O)=O)c([N+](=O)[O-])c1`, the EC50 with HepG2 is > 27 µM. Further, the half-maximal inhibitory concentration (IC50) (in assay [1]; in assay [2]; against Vitamin D3 receptor) was > 60 µM each time.

As to `CS(=O)(=O)c1ccc(C(=O)N2CCC(C(=O)NC34CC5CC(CC(C5)C3)C4)CC2)cc1[N+](=O)[O-]`, in the assay with HepG2, the EC50 is > 27 µM. The IC50 (in assay [1]; in assay [2]; on Vitamin D3 receptor) was > 60 µM throughout.

`CC1CCN(C(=O)C2CCN(C(=O)c3ccc(S(C)(=O)=O)c([N+](=O)[O-])c3)CC2)CC1`: the concentration giving a half-maximal response (EC50) with HepG2 was > 27 µM. In addition, the IC50 (in assay [1]; in assay [2]; against Vitamin D3 receptor) was > 60 µM each time.

As to `CS(=O)(=O)c1ccc(C(=O)NCCCC(=O)N2Cc3ccccc3C2)cc1[N+](=O)[O-]`, in the assay on HepG2, the concentration giving a half-maximal response (EC50) was > 27 µM. Further, the IC50 (in assay [1]; in assay [2]; against Vitamin D3 receptor) was > 60 µM throughout.

With `CN(Cc1cccc(F)c1)C(=O)CNC(=O)c1ccc(S(C)(=O)=O)c([N+](=O)[O-])c1`, the EC50 with HepG2 was > 27 µM. Further, the IC50 (in assay [1]; in assay [2]; against Vitamin D3 receptor) was > 60 µM throughout.

Turning to `CN(Cc1cccc(F)c1)C(=O)C1CCN(C(=O)c2ccc(S(C)(=O)=O)c([N+](=O)[O-])c2)CC1`, in the assay on HepG2, the half-maximal effective concentration (EC50) was > 27 µM. Moreover, the half-maximal inhibitory concentration (IC50) (in assay [1]; in assay [2]; on Vitamin D3 receptor) was > 60 µM in each case.

The values are drawn from ChEMBL document CHEMBL2346513, “Synthesis and evaluation of methylsulfonylnitrobenzamides (MSNBAs) as inhibitors of the thyroid hormone receptor-coactivator interaction” (Bioorg Med Chem Lett, 2013).
